One assay concerns primary neurons. Nature of the assay: CCK8 cell viability (toxicity) assay in primary neurons. Type of assay: cell-based, mouse. Particulars: Mus musculus, Primary neuron, CCK8 toxicity test. The text has this: (§1) The CCK8 cell viability assay (CCK8) was adopted. Its principle is mainly based on the reduction reaction of WST-8 (chemical name: 2-(2-methoxy-4-nitrophenyl)-3-(4-nitrophenyl)-5-(2,4-disulfophenyl)-2H-tetrazolium monosodium salt). In the presence of living cells, WST-8 can be reduced by dehydrogenases in mitochondria to generate a highly water-soluble orange-yellow formazan product. The color intensity is directly proportional to the number of living cells, wherein the quantity of living cells can be indirectly reflected by measuring the absorbance of formazan products (typically at a wavelength of 450 nm). The CCK-8 assay is widely used in cell proliferation assay, cytotoxicity assay and tumor drug sensitivity test.
Primary hippocampal neuron culture: After ICR fetal mice at 18-21 days of gestation (E18-E21) were anesthetized, the fetal mice were dissected in a clean area and immersed in 75% ethanol for 1-2 min. The mouse head was taken out, the surface skull was removed with micro-scissors, and the brain tissue was transferred to an anatomical dissociation solution. Under a microscope, blood vessels and meninges were removed, hippocampal tissue was isolated, the extracted hippocampal tissue was placed in a 3.5 cm dish containing the anatomical dissociation solution, and the hippocampal tissue was cut into small fragments using micro-scissors. The minced hippocampal tissue was transferred to a 7 ml EP tube using a pipette gun. The hippocampal tissue hereinabove was centrifuged at 1000 rpm for 3-5 min, and the anatomical separation solution was discarded. 0.5-1 ml of papain digestion solution was added to the EP tube hereinabove, and the EP tube was placed in a 37°C incubator for 30 min. 300 µL of Trituration buffer 300 (DNase) and 5 mL of complete medium were added, and the hippocampal tissue was gently pipetted more than 10 times. The cell suspension was allowed to stand for 3 min, and 3-4 ml of supernatant was gently aspirated into a 15 ml tube using a pipette. 3-4 ml of complete medium was added again, and the hippocampal tissue was gently pipetted more than 10 times. Step 8 was repeated, and 3-4 ml of supernatant was transferred to the same 15 ml tube again. The previous step was repeated again. The collected supernatant was centrifuged at 1000 rpm, the supernatant was discarded, and 5 ml of complete medium was added. The mixture was gently pipetted and suspended, and then centrifuged again at 1000 rpm for 5 min. The complete medium was added to resuspend the cells, and then a portion of the cells was aspirated for counting. Generally, when neuronal cells were planted in a 24-well plate, the concentration of the cell suspension was generally 2×10^5/ml, and 500 µl of cells is inoculated per well. The resuspended neuron cells with a diluted ratio were seeded onto a glass slide treated with PDL, then the glass slide was placed in a 37°C incubator for 10 min, an appropriate amount of complete medium was added, and then the culture is continued in the incubator.
Background: Formazan colour is commonly taken as a measure of viable cells.

In the next assay the test system is 293T cell line. Nature of the assay: CCK8 cell viability (toxicity) assay in 293T cell line. Format: cell-based. Particulars: Homo sapiens, HEK-293T; CCK8 toxicity test, 293T cell line.
From the text: as §1
In in vitro experiments, the compound stock solution was prepared into 10 mM with DMSO and diluted with a culture medium before use. The 293T cell line was used for preliminary concentration screening of the compound, wherein concentration gradients were set as follows: 5 µmol, 10 µmol, 20 µmol, 40 µmol, 80 µmol and 160 µmol. After the cells were treated with the compound for 24 h, the CCK8 detection kit was used, wherein the cell viability was calculated based on the absorbance values detected by a microplate reader. Data processing was performed using GraphPad Prism software to plot the IC50 curve.

Turning to `O=C(NC1CN(c2ccncn2)CC1CO)c1ccc2ncccc2c1` (centres unmarked) [compound of Formula II, N-[4-(HYDROXYMETHYL)-1-(PYRIMIDIN-4-YL)PYRROLIDIN-3-YL]QUINOLINE-6-CARBOXAMIDE], the results for the half-maximal inhibitory concentration (IC50) with primary neurons and in the assay on 293T cell line were 1.67 µM and 38.6 µM, respectively.

For the origin of these results see EP4818330A1, “PHARMACEUTICAL PREPARATION FOR DIAGNOSING AND TREATING ALZHEIMER'S DISEASE” (Shanghai East Hospital Tongji University, priority 2023, dated 2025).
